Inconclusive results are not listed.
Test system: M. tuberculosis H37Rv growth inhibition, 7H9 media
Assay: M. tuberculosis growth inhibition, HTS (AID 449762);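 note: bacterial growth assessed after seven days of incubation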
Conditions: for IC90: measured here: IC90 growth inhibition

Structure (SMILES)	IC50 [µM]	IC90 [µM]
COc1ccccc1Nc1nc(N)nc(CCl)n1	1.67	8.82
Cc1cc(C(=O)N/N=C\C(Br)=C\c2ccccc2)c(C)o1	38.5	53.8
CNC(CC(=O)c1ccc([N+](=O)[O-])cc1)C(Cl)(Cl)Cl (stereo unspecified)	2.26	5.81
CN1CCN(CC/C=C2/c3ccccc3Sc3ccc(S(=O)(=O)N(C)C)cc32)CC1		> 100
CSc1cccc(NC(=O)CCS(=O)(=O)c2cccc3nonc23)c1	1.72	7.46
CCC(C)Nc1ccc(NC(C)CC)cc1 (stereo unspecified)	1.12	1.69
Nc1ccc(S(=O)(=O)Nc2cnc3ccccc3n2)cc1	26.4	52
N#CCn1c(CCl)nc2ccccc2c1=O	5.21	17.4
CC(C)n1cnc2c(NCc3ccccc3)cc(Cc3ccc(F)cc3)cc21	26.9	36.5
CSc1ccc(CNC(=O)C2Cc3cc(S(=O)(=O)N4CCCCC4)ccc3N2C(C)=O)cc1 (stereo unspecified)	46.4	> 50
CCOC(=O)c1sc2nc3n(c(=O)c2c1C)CCC(C)CC3 (stereo unspecified)	17	39
c1ccc2sc(Sc3ncnc4sccc34)nc2c1	3.36	6.95
CC1=CC(=O)c2c(O)ccc(O)c2C1=O	8.02	12.2
COc1ccc(CCNc2cc(-c3ccccc3)nc3ncnn23)cc1	4.49	> 100
O=C1N[C@@H](Cc2ccccc2)C(=O)N2[C@H]3Nc4ccccc4[C@@]3([C@]34C[C@H]5C(=O)N[C@@H](Cc6ccccc6)C(=O)N5[C@H]3Nc3ccccc34)C[C@@H]12	79.1	> 100
O=C1C(Br)=Cc2cccc3cccc1c23	< 0.2	< 0.2

Structure (SMILES)	IC50 [µM]	IC90 [µM]
O=C(C[n+]1ccc(C(=O)N/N=C/c2ccc(O)cc2)cc1)c1ccccc1	4.47	> 100
C#CCOC(=O)/C(=C/C=C/c1ccccc1)NC(=O)c1ccccc1	3.82	43.3
Cc1ccc(-c2noc(C3CCCN(C(=O)c4ccc(C(C)(C)C)cc4)C3)n2)o1 (stereo unspecified)	48.2	55.2
CON(C)c1nc(C2CCCCC2)c2cc(C)ccc2n1	60.1	75.5
CC1C/C(=C\c2cccnc2)C(=O)/C(=C/c2cccnc2)C1 (stereo unspecified)	3.38	8.85
CCCCN1C(=N)N([C@@H](CCC)CN2CCC[C@H]2CN2C(N)=NC[C@@H]2Cc2ccccc2)C[C@H]1Cc1ccccc1	12.8	18.2
CCN(CC)c1ccc(N)cc1	7.15	9.95
C=CC[N@@+]12CC[C@]34c5ccccc5N5/C=C6\C7N(/C=C(\C53)[C@@H](C[C@@H]41)/C(=C/CO)C2)c1ccccc1[C@@]71CC[N@@+]2(CC=C)C/C(=C\CO)[C@@H]6C[C@@H]12 (stereo partly specified)	56.7	> 100
COCCCNC(=O)/C(C#N)=C/c1c(N2CCN(c3cccc(Cl)c3)CC2)nc2c(C)cccn2c1=O	53.9	> 100
CCOC(=O)CSc1nnc(NC(=O)c2ccc3c(c2)OCO3)s1	5.67	42.3
Cc1cc(=O)n2cccc(O)c2n1	5.94	15.6
CC(C)c1ccc(N2C(=O)NC(=O)/C(=C\C=C\c3ccco3)C2=O)cc1	22.1	35.7
O=C(CCl)N1CCCC1c1ccc2c(c1)OCCO2 (stereo unspecified)	3.45	9.07
CCc1ccc(N=C2NC(=O)/C(=C/c3cc(OC)c(O)c(OC)c3)S2)cc1	33.2	> 100
O=C1C(=O)c2ccccc2-c2ccccc21	6.31	6.91
